From patent US8841083B2, “PSA capture agents, compositions, methods and preparation thereof” (California Institute of Technology, priority 2011, dated 2014)

Legend:
[1] = molecular target: T1, free PSA (Homo sapiens, UniProt P07288); test: Enzyme activity assay of PSA with chymotrypsin substrate Suc-Arg-Pro-Tyr-pNA; assay type: biochemical; settings: for minimum peptide concentration affecting the activity: PSA 333 nM
T1 construct: purchased Scripps Laboratories P0725
Experimental: The enzyme activity of free PSA was studied in the presence of capture agent and the chymotrypsin substrate Suc-Arg-Pro-Tyr-pNA (AnaSpec, San Jose, Calif.) (see, e.g., Wu 2000). PSA (333 nM) was incubated with a 1-100-fold fold molar excess of capture agent in TBS (25 mM Tris, 150 mM NaCl) buffer, pH 7.8, for 1 hour at 23° C. Separately, the inhibitory effect of Zn^2+ on the enzyme activity of PSA was studied by including 1-200 μM ZnCl2 in the reaction buffer as a control. After addition of substrate to a final concentration 0.4 mM, the absorbance was monitored at 5-min intervals over 80 min at 405 nm on a Beckman Coulter DTX880 photometer (Brea, Calif.). Enzyme activity of PSA was tested in the absence of both Zn^2+ and capture agent to provide a measure of basal activity. All assays were performed in triplicate.

[2] = molecular target: T1, free PSA; test: Dot blot of serially diluted free PSA probed with biotinylated capture agent; assay type: binding; settings: for lower limit of detection: free PSA on nitrocellulose, 0.1 μM capture agent
Experimental: Serially diluted free PSA (Scripps Laboratories #P0725) in PBS pH 7.4 was applied to nitrocellulose by micropipette. The membrane was blocked at 4° C. for 2 hours in 5% non-fat dry milk in TBS (25 mM Tris, 150 mM NaCl, pH 7.25). The membrane was washed with TBS (3×). The biotinylated PSA capture agent was prepared at 0.1 μM in 0.5% milk in TBS+0.03% DMSO (v/v) and incubated over the membrane at 4° C. overnight. After washing with TBS (3×), the membrane was further subjected to 0.1 μg/mL HRP-conjugated Streptavidin (Abcam) in TBS containing 0.02% Tween20 (v/v) for 30 min at 4° C.

[3] = molecular target: T1, free PSA; test: Sandwich ELISA with capture agent as detection agent, paired with PS6 capture antibody; assay type: binding
Experimental: MAXISORP™ microtiter plates were coated with anti-human PSA (PS6, Abcam) at 10 μg/mL in PBS pH 7.4 for 2 hours at room temperature. After washing each microwell with PBS (3×), the plate was filled with 5% non-fat dry milk in TBS (25 mM Tris, 150 mM NaCl, pH 7.25) and blocked for 2 h at room temperature. Serially diluted free PSA (Scripps Laboratories #P0725) in 1% BSA in TBS was incubated across the microtiter plate for 2 h at room temperature. The plate was washed with 1% BSA in TBS (5×), and then 2 μM biotinylated capture agent in 1% BSA in TBS+0.1% DMSO (v/v) was incubated for 1 hour at room temperature. After washing all microwells with 1% BSA in TBS (5×), 0.1 μg/mL Streptavidin Poly-HRP conjugate (Pierce, Ill.) in 1% BSA in TBS was incubated for 30 min at room temperature. The plate was washed with 1% BSA in TBS (10×), followed by TBS (2×), and then developed by adding QuantaRed™ Enhanced Chemifluorescent HRP Substrate (Pierce, Ill.). Using an excitation wavelength of 535 nm, fluorescent emission at 595 nm was recorded by Beckman Coulter DTX880 photometer (Brea, Calif.) as a function of target concentration. The titration curves were fit using a four-parameter regression curve fitting program (Origin 8.5, Northampton, Mass.). Assays were performed in triplicate.

[4] = molecular target: T1, free PSA; test: Pull-down assay and Western blot; assay type: binding; settings: 1 μg free PSA in TBS buffer
Experimental: The pull-down assay assessed the specificity of a PSA capture agent by measuring its ability to purify a protein from complex media; bound to the protein in buffer or human serum in solution. The PSA/capture agent complex was then physically isolated from the sample with solid-phase affinity resins. The captured samples were separated by SDS-PAGE for Western blot analysis.
Pull-down detection of PSA was performed using a modified immunoprecipitation technique that incorporated PSA capture agent rather than antibody. […] A third sample contained biotinylated PSA capture agent (0.3-0.5 μg/mL) and 1 μg free PSA in 2 mL TBS, and similarly interacted at 4° C. overnight.
Proteins were captured by BSA-blocked Dynabeads® M-280 Streptavidin (Invitrogen, #112-05D) under rotation at 4° C. for 4 hours (50 μL of 50% slurry per pull-down condition). Proteins were eluted from beads in reducing Laemmli buffer, and beads were separated from the serum or buffer by DynaMag™-Spin magnet (Invitrogen, #123-20D). Samples were subjected to 4-20% SDS-PAGE separation and electrophoretically transferred to a nitrocellulose membrane in 25 mM Tris, 192 mM Glycine, pH 8.3, containing 20% (v/v) methanol (Bio-Rad Laboratories, Hercules, Calif.) at 100 V for 45 min. Following transfer, the nitrocellulose membrane was blocked at 4° C. for 2 hours in 5% non-fat dry milk in TBS. […]

T1 sequence (P07288 25-261): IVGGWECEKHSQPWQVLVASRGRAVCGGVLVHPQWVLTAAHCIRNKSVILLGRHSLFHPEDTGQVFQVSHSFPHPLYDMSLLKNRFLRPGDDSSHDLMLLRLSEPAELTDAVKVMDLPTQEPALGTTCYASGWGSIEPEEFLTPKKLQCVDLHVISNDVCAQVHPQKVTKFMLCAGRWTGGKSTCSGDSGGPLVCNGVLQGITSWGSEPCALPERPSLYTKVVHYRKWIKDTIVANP

## [Cl-].[Cl-].[Zn+2] [Zn^2+, zinc chloride, reference compound]
[1]
  inhibition of PSA enzyme activity: inhibits the enzyme activity of PSA

## biotin-PEG5-cyclic(CVFAHNYDYLVC) [Anchor Ligand]
[1]
  minimum peptide concentration affecting the activity: 0.250 µM

## biotin-PEG5-cyclic(CVFAHNYDYLVC)-Tz5-Gllffk [1,5Tz-biligand]
[2]; dot blot, triazole regioisomers
  limit of detection compared to 1,4Tz-biligand: improved limit of detection
[2]
  lower limit of detection: 0.14 µg
[1]
  minimum peptide concentration affecting the activity: 0.159 µM

## biotin-PEG5-cyclic(CVFAHNYDYLVC)-Tz5-Gllffk-Tz5-rrivk [PSA capture agent triligand]
[3]; free PSA, sandwich ELISA with PS6 capture antibody
  limit of quantitation (LOQ): ~4 ng/mL
[3]; sandwich ELISA
  enhanced sensitivity over the PSA capture agent biligand: > 2 fold
[2]; dot blot
  performance compared to anti-human PSA monoclonal antibody PS1: superior performance
  sensitivity compared to commercial PSA monoclonal antibodies PS2, PS6: less sensitive
[2]
  lower limit of detection: 0.14 µg
[4]
  pull-down detection of free PSA: detected free PSA in buffer

## biotin-PEG5-cyclic(CVFAHNYDYLVC)-Tz-4-Gllffk [1,4Tz-biligand]
[2]
  lower limit of detection: 0.28 µg
